We go through 22 compounds from patent publication US9365574B2, “Soluble guanylate cyclase activators” (Merck Sharp & Dohme Corp., priority 2010, dated 2016).

The test system of the first experiment is Spontaneously hypertensive rats (SHR). Put plainly: Acute Efficacy in Spontaneously Hypertensive Rats (SHR), telemetry blood pressure. The following applies: single oral dose 0.1 mpk P.O. It counts as in vivo, rat. Put shortly: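 Male SHR with aortic telemetry catheters, 14-day recovery, conscious and freely moving; single oral gavage in 10% transcutol/20% Cremophor/70% water. BP sampled 30 s every 10 min, hourly averages minus prior-day vehicle baseline; value is maximum peak SBP decrease at stated mg/kg PO dose.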
Consider `CC1(c2nnc(CC(F)(F)F)o2)C(=O)Nc2nc(-c3nn(CCC(F)(F)C(F)(F)F)c4ncccc34)nc(N)c21` (stereo not shown) [Example 216, 4-amino-5-methyl-2-[1-(3,3,4,4,4-pentafluorobutyl)-1H-pyrazolo[3,4-b]pyridin-3-yl]-5-[5-(2,2,2-trifluoroethyl)-1,3,4-oxadiazol-2-yl]-5,7-dihydro-6H-pyrrolo[2,3-d]pyrimidin-6-one], for which the “Maximum peak decrease of systolic blood pressure (SBP) in SHR, Category” value (“Maximum peak decrease” for short) was “A (Category A=SBP in SHRs<25 mmHg)”.
Same read-out and setting: the same measure for `CC1(C(=O)NC2COC2)C(=O)Nc2nc(-c3nn(CCC(F)(F)C(F)(F)F)c4nc(Cl)ccc34)nc(N)c21` (stereo not shown) [Example 230, 4-amino-2-[6-chloro-1-(3,3,4,4,4-pentafluorobutyl)-1H-pyrazolo[3,4-b]pyridin-3-yl]-5-methyl-N-oxetan-3-yl-6-oxo-6,7-dihydro-5H-pyrrolo[2,3-d]pyrimidine-5-carboxamide]: “A (Category A=SBP in SHRs<25 mmHg)”.

The same experiment, now with this note: single oral dose 0.3 mpk P.O.
Consider `Cn1cc(NC(=O)C2(C)C(=O)Nc3nc(-c4nn(CCOC(F)(F)F)c5ncccc45)nc(N)c32)cn1` (stereo not shown) [Example 215, 4-amino-5-methyl-N-(1-methyl-1H-pyrazol-4-yl)-6-oxo-2-{1-[2-(trifluoromethoxy)ethyl]-1H-pyrazolo[3,4-b]pyridin-3-yl}-6,7-dihydro-5H-pyrrolo[2,3-d]pyrimidine-5-carboxamide], for which the “Maximum peak decrease” value is given as “B (Category B=SBP in SHRs 25-40 mmHg)”.
The same measure, in the same setting: the same measure for `Cn1cc(NC(=O)C2(C)C(=O)Nc3nc(-c4nn(CCC(F)(F)C(F)(F)F)c5cc(Cl)ccc45)nc(N)c32)cn1` (stereo not shown) [Example 217, 4-amino-2-[6-chloro-1-(3,3,4,4,4-pentafluorobutyl)-1H-indazol-3-yl]-5-methyl-N-(1-methyl-1H-pyrazol-4-yl)-6-oxo-6,7-dihydro-5H-pyrrolo[2,3-d]pyrimidine-5-carboxamide]: “C (Category C=SBP in SHRs>40 mmHg)”; for `C#CC1(C)C(=O)Nc2nc(-c3nn(CCC(F)(F)C(F)(F)F)c4ncccc34)nc(N)c21` (stereo not shown) [Example 219, 4-amino-5-ethynyl-5-methyl-2-[1-(3,3,4,4,4-pentafluorobutyl)-1H-pyrazolo[3,4-b]pyridin-3-yl]-5,7-dihydro-6H-pyrrolo[2,3-d]pyrimidin-6-one]: “C (Category C=SBP in SHRs>40 mmHg)”; for `CC1(C(=O)NC2CC2)C(=O)Nc2nc(-c3nn(CCCC(F)(F)F)c4ncccc34)nc(N)c21` (stereo not shown) [Example 222, 4-amino-N-cyclopropyl-5-methyl-6-oxo-2-[1-(4,4,4-trifluorobutyl)-1H-pyrazolo[3,4-b]pyridin-3-yl]-6,7-dihydro-5H-pyrrolo[2,3-d]pyrimidine-5-carboxamide]: “C (Category C=SBP in SHRs>40 mmHg)”.
Take `CC1(C(=O)NC2CC2)C(=O)Nc2nc(-c3nn(CCC(F)(F)C(F)(F)F)c4nc(C5CC5)ccc34)nc(N)c21` (stereo not shown) [Example 223, 4-amino-N-cyclopropyl-2-[6-cyclopropyl-1-(3,3,4,4,4-pentafluorobutyl)-1H-pyrazolo[3,4-b]pyridin-3-yl]-5-methyl-6-oxo-6,7-dihydro-5H-pyrrolo[2,3-d]pyrimidine-5-carboxamide]: the “Maximum peak decrease” value is “B (Category B=SBP in SHRs 25-40 mmHg)”.
Take `CC1(c2nnc(C3CC3)o2)C(=O)Nc2nc(-c3nn(CCCC(F)(F)F)c4ncccc34)nc(N)c21` (stereo not shown) [Example 225, 4-amino-5-(5-cyclopropyl-1,3,4-oxadiazol-2-yl)-5-methyl-2-[1-(4,4,4-trifluorobutyl)-1H-pyrazolo[3,4-b]pyridin-3-yl]-5,7-dihydro-6H-pyrrolo[2,3-d]pyrimidin-6-one]: the “Maximum peak decrease” value is “C (Category C=SBP in SHRs>40 mmHg)”.
On to `CC1(C(=O)Nc2ccccn2)C(=O)Nc2nc(-c3nn(CCCC(F)(F)F)c4ncccc34)nc(N)c21` (stereo not shown) [Example 226, 4-amino-5-methyl-6-oxo-N-pyridin-2-yl-2-[1-(4,4,4-trifluorobutyl)-1H-pyrazolo[3,4-b]pyridin-3-yl]-6,7-dihydro-5H-pyrrrolo[2,3-d]pyrimidine-5-carboxamide], for which the “Maximum peak decrease” value is given as “B (Category B=SBP in SHRs 25-40 mmHg)”.
Turning to `CC1(C(=O)Nc2cccnc2)C(=O)Nc2nc(-c3nn(CCCC(F)(F)F)c4ncccc34)nc(N)c21` (stereo not shown) [Example 227], the “Maximum peak decrease” value is “B (Category B=SBP in SHRs 25-40 mmHg)”.
As for `CC1(C(N)=O)C(=O)Nc2nc(-c3nn(CCCC(F)(F)F)c4ncccc34)nc(N)c21` (stereo not shown) [Example 228, 4-amino-5-methyl-6-oxo-2-[1-(4,4,4-trifluorobutyl)-1H-pyrazolo[3,4-b]pyridin-3-yl]-6,7-dihydro-5H-pyrrolo[2,3-d]pyrimidine-5-carboxamide], the “Maximum peak decrease” value is “A (Category A=SBP in SHRs<25 mmHg)”.
In the case of `CC1(C(=O)NC2COC2)C(=O)Nc2nc(-c3nn(CCC(F)(F)C(F)(F)F)c4ncccc34)nc(N)c21` (stereo not shown) [Example 231, 4-amino-5-methyl-N-oxetan-3-yl-6-oxo-2-[1-(3,3,4,4,4-pentafluorobutyl)-1H-pyrazolo[3,4-b]pyridin-3-yl]-6,7-dihydro-5H-pyrrolo[2,3-d]pyrimidine-5-carboxamide], the “Maximum peak decrease” value is listed as “C (Category C=SBP in SHRs>40 mmHg)”.
Still for that read-out and setting: to `CC1(c2ccccn2)C(=O)Nc2nc(-c3nn(CCC(F)(F)F)c4ncccc34)nc(N)c21` (stereo not shown) [Example 232, 4-amino-5-methyl-5-pyridin-2-yl-2-[1-(3,3,3-trifluoropropyl)-1H-pyrazolo[3,4-b]pyridin-3-yl]-5,7-dihydro-6H-pyrrolo[2,3-d]pyrimidin-6-one] belongs “B (Category B=SBP in SHRs 25-40 mmHg)”; to `CC1(C(=O)Nc2cccnc2)C(=O)Nc2nc(-c3nn(CCOC(F)(F)F)c4ncccc34)nc(N)c21` (stereo not shown) [Example 233, 4-amino-5-methyl-6-oxo-N-pyridin-3-yl-2-{1-[2-(trifluoromethoxy)ethyl]-1H-pyrazolo[3,4-b]pyridin-3-yl}-6,7-dihydro-5H-pyrrolo[2,3-d]pyrimidine-5-carboxamide], “B (Category B=SBP in SHRs 25-40 mmHg)”.
Regarding `CC1(C(=O)Nc2cccnc2)C(=O)Nc2nc(-c3nn(CCC(F)(F)C(F)(F)F)c4ncccc34)nc(N)c21` (stereo not shown) [Example 234, 4-amino-5-methyl-6-oxo-2-[1-(3,3,4,4,4-pentafluorobutyl)-1H-pyrazolo[3,4-b]pyridin-3-yl]-N-pyridin-3-yl-6,7-dihydro-5H-pyrrolo[2,3-d]pyrimidine-5-carboxamide], the “Maximum peak decrease” value is listed as “C (Category C=SBP in SHRs>40 mmHg)”.
Consider `CC1(C(=O)NC2CCOC2)C(=O)Nc2nc(-c3nn(CCC(F)(F)C(F)(F)F)c4ncccc34)nc(N)c21` (stereo not shown) [Example 235, 4-amino-5-methyl-6-oxo-2-[1-(3,3,4,4,4-pentafluorobutyl)-1H-pyrazolo[3,4-b]pyridin-3-yl]-N-(tetrahydrofuran-3-yl)-6,7-dihydro-5H-pyrrolo[2,3-d]pyrimidine-5-carboxamide], for which the “Maximum peak decrease” value is “B (Category B=SBP in SHRs 25-40 mmHg)”.
Same read-out and setting: the same measure for `CC1(c2nncs2)C(=O)Nc2nc(-c3nn(CCCC(F)(F)F)c4ncccc34)nc(N)c21` (stereo not shown) [Example 236, 4-amino-5-methyl-5-(1,3,4-thiadiazol-2-yl)-2-[1-(4,4,4-trifluorobutyl)-1H-pyrazolo[3,4-b]pyridin-3-yl]-5,7-dihydro-6H-pyrrolo[2,3-d]pyrimidin-6-one]: “B (Category B=SBP in SHRs 25-40 mmHg)”.

Still in this experiment, the particulars now being: single oral dose 1 mpk P.O.
With `Cn1ccc(NC(=O)C2(C)C(=O)Nc3nc(-c4nn(CCC(F)(F)C(F)(F)F)c5ncccc45)nc(N)c32)n1` (stereo not shown) [Example 218, 4-amino-5-methyl-N-(1-methyl-1H-pyrazol-3-yl)-6-oxo-2-[1-(3,3,4,4,4-pentafluorobutyl)-1H-pyrazolo[3,4-b]pyridin-3-yl]-6,7-dihydro-5H-pyrrolo[2,3-d]pyrimidine-5-carboxamide], the “Maximum peak decrease” value was “C (Category C=SBP in SHRs>40 mmHg)”.
Still for that read-out and setting: the same measure for `COc1ccc2c(-c3nc(N)c4c(n3)NC(=O)C4(C)C(N)=O)nn(CCC(F)(F)C(F)(F)F)c2n1` (stereo not shown) [Example 220, 4-amino-2-[6-methoxy-1-(3,3,4,4,4-pentafluorobutyl)-1H-pyrazolo[3,4-b]pyridin-3-yl]-5-methyl-6-oxo-6,7-dihydro-5H-pyrrolo[2,3-d]pyrimidine-5-carboxamide]: “B (Category B=SBP in SHRs 25-40 mmHg)”; for `CC1(C(=O)NC2CC2)C(=O)Nc2nc(-c3nn(CCC(F)(F)F)c4nc(C#N)ccc34)nc(N)c21` (stereo not shown) [Example 221, 4-amino-2-[6-cyano-1-(3,3,3-trifluoropropyl)-1H-pyrazolo[3,4-b]pyridin-3-yl]-N-cyclopropyl-5-methyl-6-oxo-6,7-dihydro-5H-pyrrolo[2,3-d]pyrimidine-5-carboxamide]: “C (Category C=SBP in SHRs>40 mmHg)”; for `CC1(C(=O)NC2CC2)C(=O)Nc2nc(-c3nn(CCC(F)(F)F)c4nc(C5CC5)ccc34)nc(N)c21` (stereo not shown) [Example 224, 4-amino-N-cyclopropyl-2-[6-cyclopropyl-1-(3,3,3-trifluoropropyl)-1H-pyrazolo[3,4-b]pyridin-3-yl]-5-methyl-6-oxo-6,7-dihydro-5H-pyrrolo[2,3-d]pyrimidine-5-carboxamide]: “B (Category B=SBP in SHRs 25-40 mmHg)”.
Same read-out and setting: the same measure for `Cn1cc(C2(C)C(=O)Nc3nc(-c4nn(CCC(F)(F)C(F)(F)F)c5cc(Cl)ccc45)nc(N)c32)cn1` (stereo not shown) [Example 229, 4-amino-2-[6-chloro-1-(3,3,4,4,4-pentafluorobutyl)-1H-indazol-3-yl]-5-methyl-5-(1-methyl-1H-pyrazol-4-yl)-5,7-dihydro-6H-pyrrolo[2,3-d]pyrimidin-6-one]: “C (Category C=SBP in SHRs>40 mmHg)”.
